Assay results from publication PMC8457056, “Remodeling of the Fibrillation Pathway of α‐Synuclein by Interaction with Antimicrobial Peptide LL‐III” (Chemistry (Weinheim an Der Bergstrasse, Germany), 2021).

Assays:
α‐Syn [1] = experiment: phase-contrast light microscopy of α-Syn droplet and fibril formation; format: biochemical, human
Method: (§1) Figure 1 A) Phase‐contrast light microscopy snapshots of 100 μM and 200 μM α‐Syn solutions collected 2, 4, 7, 9 and 16 days after incubation of the monomeric α‐Syn. B) Phase‐contrast light microscopy snapshots of a solution of 100 μM α‐Syn in the presence of the reported concentration of antimicrobial peptide LL‐III. Each sample was prepared by mixing the monomeric form of α‐Syn with LL‐III. The pictures were taken after 9 and 16 days of incubation. For the snapshots after 16 days, at each peptide concentration, two different regions of the cover slip were sampled, showing the presence of discrete droplets as well as droplet clusters in solution. C) Phase‐contrast light and fluorescence microscopy snapshots of a 100 μM α‐Syn solution in the presence of 50 μM LL‐III (total peptide concentration, the concentration of the carboxyfluorescein‐labelled peptide was 1 μM). All the experiments were performed at room temperature (25 °C) in 20 mM sodium acetate buffer, pH 5.0. The scale bar is 30 μm.
To reveal if the short antimicrobial peptide LL‐III is able to affect the fibril formation of α‐Syn, we performed a series of microscopy experiments by using 100 μM of α‐Syn and varying the concentration of LL‐III between 50 μM and 500 μM. The samples were prepared by mixing a solution of LL‐III peptide and α‐Syn in the monomeric state and taking pictures after 9 and 16 days. The results are collected in Figure 1B. […] After 9 days, droplets as well as clusters thereof were visible. The size of the clusters depended on the LL‐III concentration. Higher peptide concentrations promoted the association of more droplets. […] To confirm partitioning of the LL‐III peptide in the α‐Syn droplets, complementary fluorescence microscopy experiments were performed using a carboxyfluorescein‐labelled LL‐III peptide.
The lyophilized powders of the labeled and unlabeled LL-III peptide were purchased from GenScript, Germany.
The sequence of the LL-III peptide is NH2-VNWKKIL GKIIKVVK -CONH2. In th e labeled peptide, the fluorophore 6-carboxyfluorescein (FAM) was covalently attached to the N-terminus of the peptide. All the solutions were pre-pared in 20 mM sodium acetate buffer at pH 5.0. Deionized water was used for the buffer and all sample prepara- […]
Expression and purification of α-synuclein
The expression and purification of α-synuclein (α-Syn) was carried out as described before.[1,2] The plasmid was purchased from GenScript. The plasmid pT7- 7 expressing human α-synuclein was transformed into Escherichia coli strain BL21 (DE3). A single colony was picked and inoculated into 100 m l LB medium containing 150 μg/m l ampicillin and grown at 37°C with shaking at 250 rpm until the absorbance at 600 nm reached 0.8. Induction was then carried out by adding 1 mM IPTG (final concentration) and the culture was further grown under similar con-ditions for 3 h. The cells were harvested, resuspended in 0.75 ml of buffer (50 mM Tris-HCl, pH 7.5, 10 mM EDTA and 150 mM NaCl) and frozen at - 80 °C. Tubes containing frozen cells were placed in a boiling water bath for 7 min and the supernatant collected after centrifugation at maximum speed for […]. Streptomycin sulfate (136 μl/ml of supernatant) and glacial acetic acid (228 μl/ml of supernatant) were added and centrifuged for 2 min. Again, t he supernatant was recovered and precipitated with ammonium sulfate (saturated ammonium sulfate at 4°C was used 1:1, v/v, with supernatant). […]

α‐Syn [2] = experiment: fraction of complexed α-Syn calculated from Kb; format: binding, human; settings: 100 μM α-Syn, calculated from K b
Method: From the magnitude of K b, the fraction of complexed α‐Syn in the microscopy experiments could be calculated (Figure S5). For 100 μM α‐Syn, the fraction of complexed α‐Syn, θ, in the presence of 50 μM LL‐III amounts to about 0.3. […] This is likely due to the ability of the peptide to interact with one or two α‐Syn molecules within the droplets. The interaction is expected to occur mainly via the interaction of the positively charged (+6) and hydrophobic groups of LL‐III with the negatively charged C‐terminus (−12) and hydrophobic NAC region of α‐Syn, respectively. […] In the presence of 200 μM and 500 μM LL‐III, the θ‐values are 0.70 and 0.90, respectively.
Figure S4. Binding isotherm obtained by means of Trp steady-state fluorescence anisotropy. The experiment was performed by titrating a 5 µM solution of LL-III with a solution of α-Syn in the range 0-50 µM. The red line represents the best fit according to a 1:1 binding model. The experiments were performed in 20 mM sodium acetate buffer, pH 5.0, at 25 °C.
Figure S5. Plot of the fraction of bound α -Syn as a function of the total peptide concentration. The fraction of bound α -Syn was calculated according to the concentration used in the phase- contrast light microscopy experiments reported in Figu re 1 B of the main text: 100 µ M α-Syn and 50 µM (grey circle), 200 µM (red circle) and 500 µ M (blue circle) of LL-III. […]

α‐Syn droplets = experiment: fluorescence microscopy, partitioning of LL-III in α-Syn droplets; format: binding, human; settings: 100 μM α-Syn, pH 5.0, 25 °C
Method: as §1, with “The scale bar is 30 μm.” left out
To reveal if the short antimicrobial peptide LL‐III is able to affect the fibril formation of α‐Syn, we performed a series of microscopy experiments by using 100 μM of α‐Syn and varying the concentration of LL‐III between 50 μM and 500 μM. […] To confirm partitioning of the LL‐III peptide in the α‐Syn droplets, complementary fluorescence microscopy experiments were performed using a carboxyfluorescein‐labelled LL‐III peptide. […]

Substance: NH2-VNWKKIL GKIIKVVK -CONH2 [LL‐III]
- inhibition of α-Syn fibril formation (α‐Syn [1]; 100 μM monomeric α-Syn, LL-III 50–500 μM, 9 and 16 days, 20 mM sodium acetate, pH 5.0, 25 °C): LL‐III inhibits formation of the amyloidogenic state of the protein
- inhibition of fibril formation at 50 μM LL-III (α‐Syn [1]; 100 μM α-Syn, 50 μM LL-III, 20 mM sodium acetate, pH 5.0, 25 °C): the formation of fibrils was already inhibited
- number of droplets (α‐Syn [1]; 100 μM α-Syn, 200 μM and 500 μM LL-III, pH 5.0, 25 °C): the number of droplets was significantly increased
- effect on droplet condensate after 16 days (α‐Syn [1]; 100 μM α-Syn, LL-III 50–500 μM, 16 days, pH 5.0, 25 °C): fostered formation of the droplet condensate
- decondensation of the droplets (α‐Syn [1]; conclusion): No decondensation of the droplets takes place
- fraction of complexed α‐Syn, θ (α‐Syn [2]; 50 μM LL-III): about 0.3
- fraction of complexed α‐Syn, θ (α‐Syn [2]; 200 μM LL-III): 0.70
- fraction of complexed α‐Syn, θ (α‐Syn [2]; 500 μM LL-III): 0.90
- partitioning in α-Syn droplets (α‐Syn droplets; 50 μM LL-III of which 1 μM carboxyfluorescein-labelled, 20 mM sodium acetate, excitation 488 nm): most of the LL‐III peptide was localized in the α‐Syn droplets
- droplet clusters after 16 days (α‐Syn droplets; 16 days): formation of LL‐III‐enriched droplet clusters were observed after 16 days
